What was measured:
Type in all cases: cell-based
Conditions in all cases: fluorescent calcium assay
[1] = target: T1, TRPML3 (Homo sapiens, UniProt Q8TDD5); experiment: Fluorescent TRPML3 assay (performed as for TRPML1, substituting the TRPML3 subtype)
T1 construct: expressed in transfected cells
T1 sequence (Q8TDD5 1-553): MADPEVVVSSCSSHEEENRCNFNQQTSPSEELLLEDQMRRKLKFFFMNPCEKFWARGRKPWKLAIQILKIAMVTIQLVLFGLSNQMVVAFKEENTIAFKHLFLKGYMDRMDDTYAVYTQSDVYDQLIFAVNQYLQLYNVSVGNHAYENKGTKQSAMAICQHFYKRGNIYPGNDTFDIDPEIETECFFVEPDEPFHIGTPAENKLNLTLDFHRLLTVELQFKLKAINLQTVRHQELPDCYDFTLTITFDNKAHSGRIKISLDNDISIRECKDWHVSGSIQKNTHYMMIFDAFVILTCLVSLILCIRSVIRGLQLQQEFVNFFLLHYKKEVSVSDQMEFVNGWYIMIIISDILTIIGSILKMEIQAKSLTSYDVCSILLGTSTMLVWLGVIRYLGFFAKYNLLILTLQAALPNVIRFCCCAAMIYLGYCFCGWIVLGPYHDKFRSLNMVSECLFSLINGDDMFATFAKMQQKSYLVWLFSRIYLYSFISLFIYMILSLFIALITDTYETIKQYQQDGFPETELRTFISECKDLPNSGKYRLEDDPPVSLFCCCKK
Outline: (§1)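 Doxycycline-induced (0.5 ug/mL) HEK-293 Trex cells stably expressing surface-directed mutant channel were loaded with 1 micromolar Fluo4-AM, resuspended in Ringer's with 10 mM calcium and added to compound plates. Fluorescence (ex 480, em 540 nm) gave percent activity versus on-plate controls; EC50 by non-linear regression.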

[2] = target: T2, TRPML2 (Homo sapiens, UniProt Q8IZK6); experiment: Fluorescent TRPML2 assay (performed as for TRPML1, substituting the TRPML2 subtype)
T2 construct: expressed in transfected cells
T2 sequence (Q8IZK6 1-566): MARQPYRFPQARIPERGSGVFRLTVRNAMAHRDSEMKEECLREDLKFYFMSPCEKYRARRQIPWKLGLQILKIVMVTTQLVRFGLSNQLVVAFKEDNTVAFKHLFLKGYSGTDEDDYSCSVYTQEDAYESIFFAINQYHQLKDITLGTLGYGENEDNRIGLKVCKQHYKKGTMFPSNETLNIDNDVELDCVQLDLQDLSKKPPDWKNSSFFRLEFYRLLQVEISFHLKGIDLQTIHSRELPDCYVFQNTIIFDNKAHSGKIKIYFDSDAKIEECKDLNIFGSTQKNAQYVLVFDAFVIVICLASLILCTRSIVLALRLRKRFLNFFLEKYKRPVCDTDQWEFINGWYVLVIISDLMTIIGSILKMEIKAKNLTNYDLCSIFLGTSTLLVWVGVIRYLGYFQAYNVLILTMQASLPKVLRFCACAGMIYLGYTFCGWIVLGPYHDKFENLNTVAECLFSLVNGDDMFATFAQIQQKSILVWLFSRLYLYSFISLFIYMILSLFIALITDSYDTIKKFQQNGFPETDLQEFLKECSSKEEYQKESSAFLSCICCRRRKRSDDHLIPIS
Outline: as §1

[3] = target: TRPML1 (Homo sapiens, UniProt Q9GZU1); experiment: Fluorescent TRPML1 assay (Fluo4-AM calcium fluorescence in doxycycline-induced HEK-293 Trex cells)
Outline: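 EC50 values come from non-linear regression of percent activity, normalized to on-plate positive and negative controls, with fluorescence read at 480 nm excitation and 540 nm emission. Fluo4-AM-loaded (1 µM) doxycycline-induced HEK-293 Trex cells expressing mutated human TRPML1 were exposed in 10 mM calcium Ringer's to 6 nM–20 µM compound, in triplicate.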

Sequence of TRPML1 (Q9GZU1 whole entry L15A/L16A/L577A/L578A, form open): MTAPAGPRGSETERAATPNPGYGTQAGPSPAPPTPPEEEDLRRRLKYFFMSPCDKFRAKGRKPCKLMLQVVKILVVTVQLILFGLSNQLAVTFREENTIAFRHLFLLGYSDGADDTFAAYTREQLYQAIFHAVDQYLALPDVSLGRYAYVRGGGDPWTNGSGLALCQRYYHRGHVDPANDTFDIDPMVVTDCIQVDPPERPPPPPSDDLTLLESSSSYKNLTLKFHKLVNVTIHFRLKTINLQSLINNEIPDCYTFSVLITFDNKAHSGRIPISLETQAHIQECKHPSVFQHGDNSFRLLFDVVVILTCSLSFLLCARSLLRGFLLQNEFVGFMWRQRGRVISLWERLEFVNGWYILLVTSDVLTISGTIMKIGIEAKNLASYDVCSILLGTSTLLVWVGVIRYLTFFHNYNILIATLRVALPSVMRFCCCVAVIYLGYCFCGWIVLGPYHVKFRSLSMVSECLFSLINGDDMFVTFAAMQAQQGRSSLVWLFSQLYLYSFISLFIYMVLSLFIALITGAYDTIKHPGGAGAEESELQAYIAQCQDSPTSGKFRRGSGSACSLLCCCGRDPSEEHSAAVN

| Structure (SMILES) | EC50 [1] [nM] | EC50 [2] [nM] | EC50 [3] [nM] |
| --- | --- | --- | --- |
| C[C@H]1CN(C(=O)OC(C)(C)C)CCN1c1ncnc2c1c(-c1cnn(C)c1)cn2-c1cccc(OC(F)(F)F)c1 [Compound 321, tert-butyl (S)-3-methyl-4-(5-(1-methyl-1H-pyrazol-4-yl)-7-(3-(trifluoromethoxy)phenyl)-7H-pyrrolo[2,3-d]pyrimidin-4-yl)piperazine-1-carboxylate] | 500 to 2000 | > 2000 | 500 to 2000 |
| C[C@H]1CN(C(=O)OC(C)(C)C)CCN1c1ncnc2c1c(-c1cncnc1)cn2-c1cccc(C#N)c1 [Compound 328, tert-butyl (S)-4-(7-(3-cyanophenyl)-5-(pyrimidin-5-yl)-7H-pyrrolo[2,3-d]pyrimidin-4-yl)-3-methylpiperazine-1-carboxylate] | 100 to 500 | > 2000 | 500 to 2000 |
| C[C@H]1CN(C(=O)OC(C)(C)C(F)(F)F)CCN1c1ncnc2c1c(-c1cnn(C)c1)cn2-c1cccc(C#N)c1 [Compound 329, 1,1,1-trifluoro-2-methylpropan-2-yl (S)-4-(7-(3-cyanophenyl)-5-(1-methyl-1H-pyrazol-4-yl)-7H-pyrrolo[2,3-d]pyrimidin-4-yl)-3-methylpiperazine-1-carboxylate] | 100 to 500 | > 2000 | 500 to 2000 |
| C[C@H]1CN(C(=O)OC(C)(C)C(F)(F)F)CCN1c1ncnc2c1c(-c1cncnc1)cn2-c1cc(C#N)ccn1 [Compound 335] | < 100 | 500 to 2000 | < 100 |
| C[C@H]1CN(C(=O)OC(C)(C)C(F)(F)F)CCN1c1ncnc2c1c(-c1cncnc1)cn2-c1cccc(C#N)c1 [Compound 336, 1,1,1-trifluoro-2-methylpropan-2-yl (S)-4-(7-(3-cyanophenyl)-5-(pyrimidin-5-yl)-7H-pyrrolo[2,3-d]pyrimidin-4-yl)-3-methylpiperazine-1-carboxylate] | < 100 | > 2000 | 100 to 500 |
| C[C@H]1CN(C(=O)OC(C)(C)C)CCN1c1ncnc2c1c(CN1CCCC1)cn2-c1cccc(Cl)c1 [Compound 337, tert-butyl-(S)-4-(7-(3-chlorophenyl)-5-(pyrrolidin-1-ylmethyl)-7H-pyrrolo[2,3-d]pyrimidin-4-yl)-3-methylpiperazine-1-carboxylate] | 100 to 500 | > 2000 | 500 to 2000 |
| C[C@H]1CN(C(=O)OC(C)(C)C)CCN1c1ncnc2c1c(N1CCCC1)cn2C1CCCC1 [Compound 338, tert-butyl (S)-4-(7-cyclopentyl-5-(pyrrolidin-1-yl)-7H-pyrrolo[2,3-d]pyrimidin-4-yl)-3-methylpiperazine-1-carboxylate] | 500 to 2000 | > 2000 | 100 to 500 |
| C[C@H]1CN(C(=O)OC(C)(C)C)CCN1c1ncnc2c1c(C1CC1)cn2C1CCCC1 [Compound 339, tert-butyl (S)-4-(7-cyclopentyl-5-cyclopropyl-7H-pyrrolo[2,3-d]pyrimidin-4-yl)-3-methylpiperazine-1-carboxylate] | 100 to 500 | > 2000 | 100 to 500 |
| C[C@H]1CN(C(=O)OC(C)(C)C)CCN1c1ncnc2c1c(C1CC1)cn2C1CCOCC1 [Compound 340, tert-butyl (S)-4-(5-cyclopropyl-7-(tetrahydro-2H-pyran-4-yl)-7H-pyrrolo[2,3-d]pyrimidin-4-yl)-3-methylpiperazine-1-carboxylate] | 100 to 500 | > 2000 | 500 to 2000 |
| C[C@@H]1CN(c2ncnc3c2c(N2CCC2)cn3-c2cccc(C#N)c2)CCN1C(=O)OC(C)(C)C [Compound 341, tert-butyl (R)-4-(5-(azetidin-1-yl)-7-(3-cyanophenyl)-7H-pyrrolo[2,3-d]pyrimidin-4-yl)-2-methylpiperazine-1-carboxylate] | < 100 | < 100 | < 100 |

More lines, now with the values ahead:

| EC50 [1] [nM] | EC50 [2] [nM] | EC50 [3] [nM] | Structure (SMILES) |
| --- | --- | --- | --- |
| < 100 | 500 to 2000 | 100 to 500 | C[C@H]1CN(C(=O)OC(C)(C)C)CCN1c1ncnc2c1c(-n1cccn1)cn2-c1cccc(Cl)c1 [Compound 322, tert-butyl (S)-4-(7-(3-chlorophenyl)-5-(1H-pyrazol-1-yl)-7H-pyrrolo[2,3-d]pyrimidin-4-yl)-3-methylpiperazine-1-carboxylate] |
| < 100 | > 2000 | 100 to 500 | C[C@H]1CN(C(=O)OC(C)(C)C)CCN1c1ncnc2c1c(-n1ccnc1)cn2-c1cccc(Cl)c1 [Compound 323, tert-butyl (S)-4-(7-(3-chlorophenyl)-5-(1H-imidazol-1-yl)-7H-pyrrolo[2,3-d]pyrimidin-4-yl)-3-methylpiperazine-1-carboxylate] |
| < 100 | 500 to 2000 | < 100 | C[C@H]1CN(C(=O)OC(C)(C)C)CCN1c1ncnc2c1c(N1CCOCC1)cn2-c1cccc(C#N)c1 [Compound 324, tert-butyl (S)-4-(7-(3-cyanophenyl)-5-morpholino-7H-pyrrolo[2,3-d]pyrimidin-4-yl)-3-methylpiperazine-1-carboxylate] |
| < 100 | 100 to 500 | 100 to 500 | C[C@H]1CN(C(=O)OC(C)(C)C(F)(F)F)CCN1c1ncnc2c1c(C1CC1)cn2C1CCCCC1 [Compound 325, 1,1,1-trifluoro-2-methylpropan-2-yl (S)-4-(7-cyclohexyl-5-cyclopropyl-7H-pyrrolo[2,3-d]pyrimidin-4-yl)-3-methylpiperazine-1-carboxylate] |
| < 100 | > 2000 | 100 to 500 | C[C@H]1CN(C(=O)OC(C)(C)C)CCN1c1ncnc2c1c(C1CC1)cn2C1CCCCC1 [Compound 326, tert-butyl (S)-4-(7-cyclohexyl-5-cyclopropyl-7H-pyrrolo[2,3-d]pyrimidin-4-yl)-3-methylpiperazine-1-carboxylate] |
| < 100 | 500 to 2000 | 100 to 500 | C[C@H]1CN(C(=O)OC(C)(C)C)CCN1c1ncnc2c1c(-c1cncnc1)cn2-c1cccc(Cl)c1 [Compound 327, tert-butyl (S)-4-(7-(3-chlorophenyl)-5-(pyrimidin-5-yl)-7H-pyrrolo[2,3-d]pyrimidin-4-yl)-3-methylpiperazine-1-carboxylate] |
| < 100 | 100 to 500 | < 100 | C[C@H]1CN(C(=O)OC(C)(C)C(F)(F)F)CCN1c1ncnc2c1c(-c1cnn(C)c1)cn2-c1cc(C#N)ccn1 [Compound 330, 1,1,1-trifluoro-2-methylpropan-2-yl (S)-4-(7-(4-cyanopyridin-2-yl)-5-(1-methyl-1H-pyrazol-4-yl)-7H-pyrrolo[2,3-d]pyrimidin-4-yl)-3-methylpiperazine-1-carboxylate] |
| < 100 | < 100 | < 100 | C[C@H]1CN(C(=O)OC(C)(C)C)CCN1c1ncnc2c1c(N1CCCC1)cn2-c1cccc(OC(F)(F)F)c1 [Compound 331, tert-butyl (S)-3-methyl-4-(5-(pyrrolidin-1-yl)-7-(3-(trifluoromethoxy)phenyl)-7H-pyrrolo[2,3-d]pyrimidin-4-yl)piperazine-1-carboxylate] |
| < 100 | 500 to 2000 | < 100 | C[C@@H]1CN(c2ncnc3c2c(-n2cccn2)cn3-c2cccc(Cl)c2)CCN1C(=O)OC(C)(C)C [Compound 332, tert-butyl (R)-4-(7-(3-chlorophenyl)-5-(1H-pyrazol-1-yl)-7H-pyrrolo[2,3-d]pyrimidin-4-yl)-2-methylpiperazine-1-carboxylate] |
| < 100 | < 100 | < 100 | C[C@H]1CN(C(=O)OC(C)(C)C)CCN1c1ncnc2c1c(C1CCC1)cn2-c1cc(C#N)ccn1 [Compound 333] |
| < 100 | 100 to 500 | < 100 | C[C@H]1CN(C(=O)OC(C)(C)C)CCN1c1ncnc2c1c(N1CCCC1)cn2C1CCCCC1 [Compound 334, tert-butyl (S)-4-(7-cyclohexyl-5-(pyrrolidin-1-yl)-7H-pyrrolo[2,3-d]pyrimidin-4-yl)-3-methylpiperazine-1-carboxylate] |

Source: patent publication US20250136606A1, “MODULATORS OF TRPML, THEIR COMPOSITIONS AND METHODS OF USE” (Caraway Therapeutics, Inc., priority 2021, published 2025)
